{
  "source": "patent US12421207B2",
  "about": "(CMG Pharmaceutical Co., Ltd., priority 2022, dated 2025)",
  "key": {"[1]": {"tested_on": "PC9/ER cells", "assay": "Cell viability assay (CellTiter-Glo 2.0), erlotinib-resistant PC9/ER cells", "format": "cell-based", "source_text": "(§1) To explore c-MET and AXL mechanisms of EGFR TKI resistance, resistant cells of the EGFR TKI hypersensitive EGFR exon 19 mutant NSCLC cell line, HCC827 and PC9 were generated by exposing these cells to increasing concentrations of EGFR TKI for over 3 months.\n(§2) Gefitinib-resistant cells were referred to as HCC827/GR. […] Osimertinib-resistant cells were referred to as HCC827/OR."}, "[2]": {"molecular_target": "c-MET (Homo sapiens, UniProt P08581)", "sequence (P08581 25-1390)": "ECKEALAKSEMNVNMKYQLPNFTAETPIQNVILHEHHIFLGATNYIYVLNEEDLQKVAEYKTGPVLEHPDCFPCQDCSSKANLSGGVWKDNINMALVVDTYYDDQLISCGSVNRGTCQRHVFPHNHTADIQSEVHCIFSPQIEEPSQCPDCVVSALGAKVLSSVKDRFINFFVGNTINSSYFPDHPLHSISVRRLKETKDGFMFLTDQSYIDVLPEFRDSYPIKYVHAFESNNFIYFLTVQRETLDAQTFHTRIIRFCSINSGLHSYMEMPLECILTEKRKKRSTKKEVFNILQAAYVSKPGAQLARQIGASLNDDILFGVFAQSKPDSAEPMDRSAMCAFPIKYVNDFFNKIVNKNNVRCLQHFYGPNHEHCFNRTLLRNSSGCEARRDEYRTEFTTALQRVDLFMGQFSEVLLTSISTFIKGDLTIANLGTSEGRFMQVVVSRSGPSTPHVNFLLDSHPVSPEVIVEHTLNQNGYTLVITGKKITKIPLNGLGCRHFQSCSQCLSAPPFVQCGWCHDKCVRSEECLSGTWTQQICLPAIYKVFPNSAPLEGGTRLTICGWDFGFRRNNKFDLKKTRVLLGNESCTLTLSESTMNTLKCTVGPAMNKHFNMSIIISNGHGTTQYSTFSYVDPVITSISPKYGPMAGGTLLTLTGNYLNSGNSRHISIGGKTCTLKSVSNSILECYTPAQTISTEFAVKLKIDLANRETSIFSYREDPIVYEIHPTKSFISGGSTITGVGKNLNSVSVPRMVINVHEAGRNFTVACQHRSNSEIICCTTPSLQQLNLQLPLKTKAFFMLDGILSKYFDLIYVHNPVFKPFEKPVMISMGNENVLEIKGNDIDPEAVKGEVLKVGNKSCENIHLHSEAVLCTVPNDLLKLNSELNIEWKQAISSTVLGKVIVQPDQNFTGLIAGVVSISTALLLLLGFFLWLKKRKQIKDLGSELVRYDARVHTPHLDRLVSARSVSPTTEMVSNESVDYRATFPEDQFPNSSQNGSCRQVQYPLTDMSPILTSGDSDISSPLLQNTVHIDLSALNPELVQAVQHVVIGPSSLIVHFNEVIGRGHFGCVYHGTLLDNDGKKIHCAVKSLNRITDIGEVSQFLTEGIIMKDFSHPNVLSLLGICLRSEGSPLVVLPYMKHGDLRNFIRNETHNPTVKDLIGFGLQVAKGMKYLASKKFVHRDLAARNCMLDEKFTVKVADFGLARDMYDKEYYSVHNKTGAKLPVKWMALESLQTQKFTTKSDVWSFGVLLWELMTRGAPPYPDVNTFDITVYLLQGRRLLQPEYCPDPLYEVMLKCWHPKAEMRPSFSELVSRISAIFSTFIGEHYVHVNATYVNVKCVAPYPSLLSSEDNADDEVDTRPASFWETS", "assay": "Enzymatic kinase assay (ADP-Glo), c-MET", "format": "biochemical", "settings": "poly (Glu4, Tyr1) substrate, 60 min room temperature, ADP-GLO luminescence", "procedure": "(§3) All the kinase reactions were performed in 5 μL using tyrosine kinase buffer with 0.2 μg/μL poly (Glu4, Tyr1) substrate, 10 µM ATP, serial dilution of the inhibitor, and incubated at room temperature for 60 min. After the indicated incubation times, 5 μL ADP-GLO™ reagent (Promega, Madison, WI) was added to the reactions and the plate was incubated at room temperature for 40 min. […] All 384-well assay plates were read using a GLOMAX™ Discover Microplate Luminometer from Promega (Madison, WI). To plot, analyze the data and calculate all kinase reaction biochemical values, both Microsoft Excel and Prism from GraphPad 7 Software (La Jolla, CA) were used."}, "[3]": {"tested_on": "HCC827/OR cells", "assay": "Cell viability assay (CellTiter-Glo 2.0), osimertinib-resistant HCC827/OR cells", "format": "cell-based, human", "source_text": "as §1, §2"}, "[4]": {"tested_on": "HCC827/GR cells", "assay": "Cell viability assay (CellTiter-Glo 2.0), gefitinib-resistant HCC827/GR cells", "format": "cell-based, human", "settings": "72 h drug treatment, read-out: Relative cell viability, IC50 HCC827GR", "how_it_was_run": "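Gefitinib-resistant HCC827 cells, derived by over 3 months' escalating EGFR TKI exposure, seeded at 1,000 cells/well. Treated 72 h with a 10-point dose range from 1 nM to 10,000 nM. Viability read by CellTiter-Glo 2.0 luminescence.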"}, "[5]": {"molecular_target": "T1, MER (Homo sapiens, UniProt Q12866)", "T1 sequence (Q12866 21-999)": "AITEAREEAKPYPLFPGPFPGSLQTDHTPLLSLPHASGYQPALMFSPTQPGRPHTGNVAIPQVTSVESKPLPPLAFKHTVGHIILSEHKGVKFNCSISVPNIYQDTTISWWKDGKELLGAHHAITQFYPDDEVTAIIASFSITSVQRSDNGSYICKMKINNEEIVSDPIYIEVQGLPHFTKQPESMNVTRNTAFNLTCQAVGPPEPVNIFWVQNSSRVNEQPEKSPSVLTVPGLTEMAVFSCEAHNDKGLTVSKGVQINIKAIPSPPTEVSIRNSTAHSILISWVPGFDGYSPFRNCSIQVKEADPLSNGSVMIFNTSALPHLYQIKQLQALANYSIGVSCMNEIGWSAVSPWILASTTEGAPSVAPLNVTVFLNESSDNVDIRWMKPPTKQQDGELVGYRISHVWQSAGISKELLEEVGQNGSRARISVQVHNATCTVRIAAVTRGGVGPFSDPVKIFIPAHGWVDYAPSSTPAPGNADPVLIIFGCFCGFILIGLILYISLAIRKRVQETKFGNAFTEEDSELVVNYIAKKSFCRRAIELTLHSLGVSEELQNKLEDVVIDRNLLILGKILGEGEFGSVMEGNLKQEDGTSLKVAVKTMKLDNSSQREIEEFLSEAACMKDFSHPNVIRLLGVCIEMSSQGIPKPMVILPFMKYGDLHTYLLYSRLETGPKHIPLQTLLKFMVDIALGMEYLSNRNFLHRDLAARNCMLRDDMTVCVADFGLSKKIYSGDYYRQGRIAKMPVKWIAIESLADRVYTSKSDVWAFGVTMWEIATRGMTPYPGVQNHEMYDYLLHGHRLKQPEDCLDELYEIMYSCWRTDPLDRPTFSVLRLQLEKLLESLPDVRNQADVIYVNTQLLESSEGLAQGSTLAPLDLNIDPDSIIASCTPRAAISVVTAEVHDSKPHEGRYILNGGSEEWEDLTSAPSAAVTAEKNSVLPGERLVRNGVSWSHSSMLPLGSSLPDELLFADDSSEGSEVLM", "assay": "Enzymatic kinase assay (ADP-Glo), MER", "format": "biochemical", "settings": "poly (Glu4, Tyr1) substrate, 60 min room temperature, ADP-GLO luminescence", "procedure": "All the kinase reactions were performed in 5 μL using tyrosine kinase buffer with 0.2 μg/μL poly (Glu4, Tyr1) substrate, 10 µM ATP, serial dilution of the inhibitor, and incubated at room temperature for 60 min. After the indicated incubation times, 5 μL ADP-GLO™ reagent (Promega, Madison, WI) was added to the reactions and the plate was incubated at room temperature for 40 min. Then, 10 μL of kinase detection reagent was added and after an incubation time of 40 min, luminescence was recorded and IC50 values were determined (Table 1). All 384-well assay plates were read using a GLOMAX™ Discover Microplate Luminometer from Promega (Madison, WI). To plot, analyze the data and calculate all kinase reaction biochemical values, both Microsoft Excel and Prism from GraphPad 7 Software (La Jolla, CA) were used.\nas §3, with “To plot, analyze the data and calculate all kinase reaction biochemical values, both Microsoft Excel and Prism from GraphPad 7 Software (La Jolla, CA) were used.” left out"}, "[6]": {"molecular_target": "T2, AXL (Homo sapiens, UniProt P30530)", "T2 sequence (P30530 26-894)": "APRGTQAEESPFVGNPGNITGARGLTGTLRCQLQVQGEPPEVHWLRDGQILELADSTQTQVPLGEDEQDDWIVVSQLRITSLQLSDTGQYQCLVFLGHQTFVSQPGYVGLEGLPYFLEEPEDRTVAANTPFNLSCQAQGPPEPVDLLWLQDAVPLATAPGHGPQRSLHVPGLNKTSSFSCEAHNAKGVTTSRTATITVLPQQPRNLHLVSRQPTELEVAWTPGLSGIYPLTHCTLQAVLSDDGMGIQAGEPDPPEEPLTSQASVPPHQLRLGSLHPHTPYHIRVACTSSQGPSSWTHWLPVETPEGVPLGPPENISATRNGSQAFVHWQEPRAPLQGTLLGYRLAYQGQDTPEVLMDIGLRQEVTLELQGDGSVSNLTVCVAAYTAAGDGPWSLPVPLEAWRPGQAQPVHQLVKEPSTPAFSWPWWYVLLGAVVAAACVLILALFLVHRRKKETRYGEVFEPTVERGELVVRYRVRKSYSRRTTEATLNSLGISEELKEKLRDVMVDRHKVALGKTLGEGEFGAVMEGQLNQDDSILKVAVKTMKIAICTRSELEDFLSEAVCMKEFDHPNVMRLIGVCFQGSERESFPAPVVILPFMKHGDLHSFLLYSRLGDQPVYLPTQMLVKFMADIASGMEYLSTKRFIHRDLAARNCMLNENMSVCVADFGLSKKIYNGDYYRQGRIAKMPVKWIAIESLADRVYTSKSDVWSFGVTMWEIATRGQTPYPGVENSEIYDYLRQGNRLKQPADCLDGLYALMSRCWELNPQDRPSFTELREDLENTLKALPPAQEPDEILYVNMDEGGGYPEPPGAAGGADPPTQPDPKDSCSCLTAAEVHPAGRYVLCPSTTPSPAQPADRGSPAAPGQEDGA", "assay": "Enzymatic kinase assay (ADP-Glo), AXL", "format": "biochemical", "settings": "poly (Glu4, Tyr1) substrate, 60 min room temperature, ADP-GLO luminescence", "procedure": "as §3"}, "[7]": {"tested_on": "HCC827/ER cells", "assay": "Cell viability assay (CellTiter-Glo 2.0), erlotinib-resistant HCC827/ER cells", "format": "cell-based, human", "settings": "72 h drug treatment, read-out: Relative cell viability, IC50 HCC827ER", "source_text": "as §1, §2"}, "[8]": {"tested_on": "PC9 cells", "assay": "Cell viability assay, parental PC9 cells", "format": "cell-based", "settings": "Homo sapiens, PC-9; parental EGFR TKI-sensitive cells", "procedure": "(§4) The human cell line HCC827 was purchased from the American Type Culture Collection (Manassas, VA), and the PC9 cell line was obtained from RIKEN Cell Bank (Ibaraki, Japan). […] Gefitinib-resistant cells were referred to as HCC827/GR. […] Osimertinib-resistant cells were referred to as HCC827/OR.\n(§5) Cell viability assays were carried out by plating 1,000 cells per well of HCC827 or PC9 resistant cells, respectively, into white transparent-bottom 384-well plates. The cells were treated with each TKI across a 10-dose range from 1 nM to 10,000 nM. After 72 h of drug treatment, cell viability was measured using the CellTiter-Glo 2.0 assay (Promega, Madison, WI)."}, "[9]": {"tested_on": "HCC827 cells", "assay": "cells", "settings": "Homo sapiens, HCC827, read-out: EGFR TKI IC50 in HCC827 cells", "procedure": "as §4, §5"}, "[10]": {"settings": "Table 2, EGFR TKI resistant cells, combination with EGFR TKI"}, "[11]": {"settings": "Table 4, combinations of EGFR TKIs and inhibitor of Formula (I)"}},
  "note": "pIC50: −log10 of the molar value. Where two headings read alike, the source gives them in different places.",
  "data": [
    {"compound": "CC(C)c1c(Oc2ccc(NC(=O)c3cn(C(C)C)c(=O)n(-c4ccc(F)cc4)c3=O)cc2F)ccnc1N", "note": "[Example 8]", "values": [
      {"measurement": "pIC50", "setting": "[1]; Table 2, 72 h drug treatment, EGFR TKI resistant cells, combination with EGFR TKI, read-out: Relative cell viability, IC50 PC9ER", "value": "> 5.00"},
      {"measurement": "pIC50", "setting": "[2]; Table 1", "value": "> 8.00"},
      {"measurement": "pIC50", "setting": "[3]; Table 2, 72 h drug treatment, EGFR TKI resistant cells, combination with EGFR TKI, read-out: Relative cell viability, IC50 HCC827OR", "value": "> 7.00"},
      {"measurement": "pIC50", "setting": "[4]; [10]", "value": "> 7.00"},
      {"measurement": "pIC50", "setting": "[5]; Table 1", "value": "> 7.00"},
      {"measurement": "pIC50", "setting": "[6]; Table 1", "value": "> 8.00"},
      {"measurement": "pIC50", "setting": "[7]; [10]", "value": "> 7.00"}
    ]},
    {"compound": "C#Cc1cccc(Nc2ncnc3cc(OCCOC)c(OCCOC)cc23)c1", "note": "[erlotinib, reference compound]", "values": [
      {"measurement": "pIC50", "setting": "[8]", "value": "> 8.00"},
      {"measurement": "pIC50", "setting": "[1]; Homo sapiens, PC-9/ER, read-out: EGFR TKI IC50 in PC9/ER", "value": "< 5.00"},
      {"measurement": "higher resistance than the parental cells, PC9/ER", "setting": "[1]; PC9/ER versus parental PC9", "value": "1,000 fold"}
    ]},
    {"compound": "C=CC(=O)Nc1cc(Nc2nccc(-c3cn(C)c4ccccc34)n2)c(OC)cc1N(C)CCN(C)C", "note": "[osimertinib, reference compound]", "values": [
      {"measurement": "pIC50", "setting": "[9]", "value": "> 9.52"},
      {"measurement": "higher resistance than the parental cells, HCC827/OR", "setting": "[3]; HCC827/OR versus parental HCC827", "value": "3,000 fold"},
      {"measurement": "pIC50", "setting": "[3]; Homo sapiens, HCC827, read-out: EGFR TKI IC50 in HCC827/OR cells", "value": "< 6.00"}
    ]},
    {"compound": "N-(4-(2-amino-3-(3-piperidin-4-yl)prop-1-ynyl)pyridin-4-yloxy)-3-fluorophenyl)-3-cyclohexyl-1-ethyl-2,4-dioxo-1,2,3,4-tetrahydropyrimidine-5-carboxamide [Example 65]", "values": [
      {"measurement": "pIC50", "setting": "[1]; Table 4, 72 h drug treatment, combinations of EGFR TKIs and inhibitor of Formula (I), read-out: Relative cell viability, IC50 PC9ER", "value": "> 6.00"},
      {"measurement": "pIC50", "setting": "[2]; Table 3", "value": "> 7.00"},
      {"measurement": "pIC50", "setting": "[3]; Table 4, 72 h drug treatment, combinations of EGFR TKIs and inhibitor of Formula (I), read-out: Relative cell viability, IC50 HCC827OR", "value": "> 5.00"},
      {"measurement": "pIC50", "setting": "[4]; [11]", "value": "> 6.00"},
      {"measurement": "pIC50", "setting": "[5]; Table 3", "value": "> 8.00"},
      {"measurement": "pIC50", "setting": "[6]; Table 3", "value": "> 8.00"},
      {"measurement": "pIC50", "setting": "[7]; [11]", "value": "> 6.00"}
    ]}
  ]
}
